Reference: US20210300924A1, “5-[6-[[3-(4,5,6,7-TETRAHYDROPYRAZOLO[4,3-C]PYRIDIN-1-YL)AZETIDIN-1-YL]METHYL]MORPHOLIN-4-YL]QUINOLINE-8-CARBONITRILE DERIVATIVES AND SIMILAR COMPOUNDS AS TLR7-9 ANTAGONISTS FOR TREATING SYSTEMIC LUPUS ERYTHEMATOSUS” (Hoffmann-La Roche Inc., priority 2018, published 2021)

Molecular target: T1, hERG channel (Homo sapiens, UniProt Q12809)
T1 construct: expressed in transfected cells; host or cells: CHO (Chinese hamster ovary), CHOhERG
Assay: hERG channel inhibition assay (patch-clamp, CHOhERG cells)
Format: cell-based
Details: for IC50 / IC20: CHOhERG cells, whole-cell patch-clamp; for IC20: human, CHO cells stably expressing hERG (CHOhERG cells); for hERG IC20/TLR7 IC50 / hERG IC20/TLR8 IC50 / hERG IC20/TLR9 IC50: safety ratio, >30 suggests sufficient window
Method: hERG Channel Inhibition Assay:
The hERG K^+ channels were cloned in humans and stably expressed in a CHO (Chinese hamster ovary) cell line. CHOhERG cells were used for patch-clamp (voltage-clamp, whole-cell) experiments. Cells were stimulated by a voltage pattern to activate hERG channels and conduct hERG currents (rapid delayed outward rectifier potassium current of the hERG channel). After the cells were stabilized for a few minutes, the amplitude and kinetics of IKhERG were recorded at a stimulation frequency of 0.1 Hz (6 bpm). Thereafter, the test compound was added to the preparation at increasing concentrations. For each concentration, an attempt was made to reach a steady-state effect, usually, this was achieved within 3-10 min at which time the next highest concentration was applied. The amplitude and kinetics of IKhERG are recorded in each concentration of the drug which were compared to the control values (taken as 100%). (references: Redfern W S, Carlsson L, Davis A S, Lynch W G, MacKenzie I, Palethorpe S, Siegl P K, Strang I, Sullivan A T, Wallis R, Camm A J, Hammond T G. 2003; Relationships between preclinical cardiac electrophysiology, clinical QT interval prolongation and torsade de pointes for a broad range of drugs: evidence for a provisional safety margin in drug development. Cardiovasc. Res. 58:32-45, Sanguinetti MC, Tristani-Firouzi M. 2006; hERG potassium channels and cardiac arrhythmia. Nature 440:463-469, Webster R, Leishman D, Walker D. 2002; Towards a drug concentration effect relationship for QT prolongation and torsades de pointes. Curr. Opin. Drug Discov. Devel. 5:116-26).

T1 sequence (Q12809 whole entry): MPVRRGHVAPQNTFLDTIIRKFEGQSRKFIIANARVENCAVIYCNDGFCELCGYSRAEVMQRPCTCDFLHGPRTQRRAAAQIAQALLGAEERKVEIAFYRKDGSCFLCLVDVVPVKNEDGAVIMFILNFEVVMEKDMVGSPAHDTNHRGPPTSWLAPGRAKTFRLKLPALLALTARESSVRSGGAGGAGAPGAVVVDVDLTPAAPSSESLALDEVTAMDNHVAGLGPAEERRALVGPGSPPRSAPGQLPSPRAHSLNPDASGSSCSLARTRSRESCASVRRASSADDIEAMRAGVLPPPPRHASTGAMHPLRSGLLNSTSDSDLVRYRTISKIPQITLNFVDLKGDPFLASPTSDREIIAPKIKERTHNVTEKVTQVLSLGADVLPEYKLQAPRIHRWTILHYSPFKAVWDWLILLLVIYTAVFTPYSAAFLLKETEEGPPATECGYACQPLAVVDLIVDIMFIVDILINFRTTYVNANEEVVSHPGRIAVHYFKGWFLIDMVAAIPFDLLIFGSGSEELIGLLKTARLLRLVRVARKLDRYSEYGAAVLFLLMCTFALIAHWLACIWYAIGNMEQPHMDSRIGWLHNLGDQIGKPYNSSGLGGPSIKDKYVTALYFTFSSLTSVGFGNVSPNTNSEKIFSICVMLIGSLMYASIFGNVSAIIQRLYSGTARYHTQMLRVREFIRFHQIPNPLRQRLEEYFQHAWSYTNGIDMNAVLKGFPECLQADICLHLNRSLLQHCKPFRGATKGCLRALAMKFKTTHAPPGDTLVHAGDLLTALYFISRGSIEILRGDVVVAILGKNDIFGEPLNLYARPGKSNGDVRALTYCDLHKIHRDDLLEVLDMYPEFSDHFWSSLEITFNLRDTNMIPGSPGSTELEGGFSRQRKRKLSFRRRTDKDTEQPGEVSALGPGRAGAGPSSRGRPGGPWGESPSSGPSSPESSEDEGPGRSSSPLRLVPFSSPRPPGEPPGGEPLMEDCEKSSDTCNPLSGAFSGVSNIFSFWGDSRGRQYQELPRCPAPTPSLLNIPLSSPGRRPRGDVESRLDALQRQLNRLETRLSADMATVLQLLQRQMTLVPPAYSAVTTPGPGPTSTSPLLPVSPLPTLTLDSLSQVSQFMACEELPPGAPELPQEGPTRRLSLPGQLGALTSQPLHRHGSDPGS

Row | Compound | IC50 | IC20 | hERG IC20/TLR7 IC50 | hERG IC20/TLR8 IC50 | hERG IC20/TLR9 IC50
1 | C[C@@H]1CN(c2ccc(C#N)c3ncccc23)C[C@H](CN2CC(n3cc4c(n3)CN[C@@H](C)C4)C2)O1 (single isomer, unassigned) [Example 29] | > 20 µM | > 10 µM | >1265.8 | >877.2 | >138.3
2 | C[C@@H]1Cc2cn(C3CN(C[C@H]4CN(c5ccc(C#N)c6ncccc56)C[C@@H](C)O4)C3)nc2CN1 (single isomer, unassigned) [Example 30] | > 20 µM | > 10 µM | >2083.3 | >735.3 | >175.7
3 | C[C@@H]1CN(c2ccc(C#N)c3ncccc23)C[C@H](CN2CC(n3cc4c(n3)[C@@H](C)NCC4)C2)O1 (single isomer, unassigned) [Example 33] | > 20 µM | > 10 µM | >1369.9 | >763.4 | >291.5
4 | C[C@@H]1CN(c2ccc(C#N)c3ncccc23)C[C@H](CN2CC(n3ncc4c3CCNC4)C2)O1 [Example 1, 5-[(2R,6S)-2-methyl-6-[[3-(4,5,6,7-tetrahydropyrazolo[4,3-c]pyridin-1-yl)azetidin-1-yl]methyl]morpholin-4-yl]quinoline-8-carbonitrile] | > 20 µM | > 10 µM | >1023.8 | >584.4 | >174.0
5 | C[C@@H]1CN(c2ccc(C#N)c3ncccc23)C[C@H](CN2CC(n3cc4c(n3)CCNC4)C2)O1 [Example 2, 5-[(2R,6S)-2-methyl-6-[[3-(4,5,6,7-tetrahydropyrazolo[4,3-c]pyridin-2-yl)azetidin-1-yl]methyl]morpholin-4-yl]quinoline-8-carbonitrile] | > 20 µM | > 10 µM | >403.5 | >538.4 | >151.6
6 | C[C@@H]1CN(c2ccc(C#N)c3ncccc23)C[C@H](CN2CC(n3ncc4c3CNCC4)C2)O1 [Example 3, 5-[(2R,6S)-2-methyl-6-[[3-(4,5,6,7-tetrahydropyrazolo[3,4-c]pyridin-1-yl)azetidin-1-yl]methyl]morpholin-4-yl]quinoline-8-carbonitrile] | > 20 µM | > 10 µM | >2901.3 | >1739.2 | >194.9
7 | C[C@@H]1CN(c2ccc(C#N)c3ncccc23)C[C@H](CN2CC(n3cc4c(n3)CNCC4)C2)O1 [Example 4, 5-[(2R,6S)-2-methyl-6-[[3-(4,5,6,7-tetrahydropyrazolo[3,4-c]pyridin-2-yl)azetidin-1-yl]methyl]morpholin-4-yl]quinoline-8-carbonitrile] | > 20 µM | > 10 µM | >1136.4 | >1162.8 | >314.5
8 | C[C@@H]1CN(c2ccc(C#N)c3ncccc23)C[C@H](CN2CC(n3cc4c(n3)CN(C)CC4)C2)O1 [Example 5, 5-[(2R,6S)-2-methyl-6-[[3-(6-methyl-5,7-dihydro-4H-pyrazolo[3,4-c]pyridin-2-yl)azetidin-1-yl]methyl]morpholin-4-yl]quinoline-8-carbonitrile] | > 20 µM | > 10 µM | >2857.1 | >1653.6 | >73.1
9 | C[C@@H]1CN(c2ccc(C#N)c3ncccc23)C[C@H](CN2CC(n3cc4c(n3)CNC4)C2)O1 [Example 11, 5-[(2S,6R)-2-[[3-(5,6-dihydro-4H-pyrrolo[3,4-c]pyrazol-2-yl)azetidin-1-yl]methyl]-6-methyl-morpholin-4-yl]quinoline-8-carbonitrile] | > 20 µM | > 10 µM | >602.4 | >531.9 | >204.5
10 | Cc1nn(C2CN(C[C@H]3CN(c4ccc(C#N)c5ncccc45)C[C@@H](C)O3)C2)c2c1CNCC2 [Example 12, 5-[(2R,6S)-2-methyl-6-[[3-(3-methyl-4,5,6,7-tetrahydropyrazolo[4,3-c]pyridin-1-yl)azetidin-1-yl]methyl]morpholin-4-yl]quinoline-8-carbonitrile] | > 20 µM | > 10 µM | >666.7 | >226.8 | >127.6
11 | Cc1c2c(nn1C1CN(C[C@H]3CN(c4ccc(C#N)c5ncccc45)C[C@@H](C)O3)C1)CCNC2 [Example 13, 5-[(2R,6S)-2-methyl-6-[[3-(3-methyl-4,5,6,7-tetrahydropyrazolo[4,3-c]pyridin-2-yl)azetidin-1-yl]methyl]morpholin-4-yl]quinoline-8-carbonitrile] | > 20 µM | > 10 µM | >694.4 | >222.2 | >84.5
12 | C[C@@H]1Cc2c(cnn2C2CN(C[C@H]3CN(c4ccc(C#N)c5ncccc45)C[C@@H](C)O3)C2)CN1 [Example 16, 5-[(2R,6S)-2-methyl-6-[[3-[(6R)-6-methyl-4,5,6,7-tetrahydropyrazolo[4,3-c]pyridin-1-yl]azetidin-1-yl]methyl]morpholin-4-yl]quinoline-8-carbonitrile] | > 20 µM | > 10 µM | >2381.0 | >641.0 | >129.0
13 | C[C@@H]1CN(c2ccc(C#N)c3ncccc23)C[C@H](CN2CCC(n3ncc4c3CCNC4)CC2)O1 [Example 35, 5-[(2R,6S)-2-methyl-6-[[4-(4,5,6,7-tetrahydropyrazolo[4,3-c]pyridin-1-yl)-1-piperidyl]methyl]morpholin-4-yl]quinoline-8-carbonitrile] | > 20 µM | > 10 µM | >1924.5 | >397.8 | >121.4
14 | C[C@@H]1CN(c2ccc(C#N)c3ncccc23)C[C@H](CN2CCC(n3cc4c(n3)CCNC4)CC2)O1 [Example 36, 5-[(2R,6S)-2-methyl-6-[[4-(4,5,6,7-tetrahydropyrazolo[4,3-c]pyridin-2-yl)-1-piperidyl]methyl]morpholin-4-yl]quinoline-8-carbonitrile] | > 20 µM | 10 µM | 566.6 | 246.7 | 180.7
